The values below come from patent publication US8598216B1 (Abbvie Inc., priority 2010, dated 2013).

Bounds are passed on as bounds.

One data set can be described thus: in vivo. As to conditions: dog. As to the method:
A series of studies evaluated the effect of the bis-hydrochloride and bis-tosylate form on the ritonavir plasma concentrations following single 100 mg base doses in dogs. Each of the salts was evaluated in a single group of six dogs. The free base and the two salts were weighed into gelatin capsules at a dose of 100 mg base for dosing in the dogs. The dogs were fasted overnight prior to dosing, but were permitted free access to water. Approximately 30 minutes prior to dosing, the dogs received a 100 ug/kg subcutaneous dose of histamine. Plasma concentrations of parent drug were determined by HPLC-MS/MS. The following formulations/salts were evaluated: amorphous ritonavir bis-hydrochloride, amorphous ritonavir free base, and ritonavir bis-tosylate.

The nature of data set [1]: Dynamic moisture sorption (hygroscopicity). It is filed as physicochemical. As to conditions: 90% RH, 25° C.; FIG. 7. On the procedure:
Hygroscopicity was evaluated on a dynamic moisture sorption balance (IGAsorp, Hiden Isochema, Warrington, UK) equipped with a data analyzer (IGAsorp, version 6.0.0.23, Hiden Isochema, Warrington UK). The balance was calibrated using standardized weights of 20, 50, and 100 mg. The RH probe was calibrated using standardized salt solutions of Lithium Chloride, Potassium Carbonate, and Sodium Chloride. During the experiment, the flow rate of nitrogen gas at different relative humidity was 250 mL/min. For anhydrous materials, the sample was first dried with dry nitrogen at 50° C. for two hours. The temperature was then set to 25° C. and the relative humidity was changed from 0% to 90% and back to 0% at 10% interval. For hydrated samples, the temperature was set to 25° C. and the relative humidity was changed at 10% interval from 30% to 90%, back to 10%, and then to 90%.

The nature of data set [2]: Intrinsic dissolution rate (IDR), compressed disc, USP II. It is filed as physicochemical. As to conditions: 200 mL pH 6.8 phosphate buffer, paddle 100 rpm; FIG. 10. On the procedure: Drug dissolution was measured using in USP II (Dissolution medium: 200 mL pH 6.8 phosphate buffer; Paddle speed: 100 rpm).

With “ritonavir bis-tosylate [reference compound]”, in the data set “in vivo” (po, 100 mg), the “AUC, range” value fell in the range of 70 to 6420 ng·h/mL and the “peak concentration (Cmax), range” value was 10 to 1620 ng/mL.
Turning to `CC(C)c1nc(CN(C)C(=O)N[C@H](C(=O)N[C@@H](Cc2ccccc2)C[C@H](O)[C@H](Cc2ccccc2)NC(=O)OCc2cncs2)C(C)C)cs1.Cl.Cl` [ritonavir bis-hydrochloride], the “bioavailability compared with free base” value in the data set “in vivo” is recorded as “greater bioavailability than the free base of ritonavir”. Moreover, in the data set “in vivo” (po, 100 mg, range), the AUC (usually the area under the concentration-time curve, a measure of exposure) was 3160 to 20200 ng·h/mL. The Cmax – broadly, the highest concentration seen after dosing – in “in vivo” (po, 100 mg, peak concentration (Cmax), range) lay in the range of 1160 to 8390 ng/mL. For the same compound, the moisture picked up entry in data set [1] is “about 20 % (w/w)”. The “intrinsic dissolution rate compared with ritonavir free base” value in data set [2] was “significantly faster dissolution rate than the ritonavir free base”.
With `CC(C)c1nc(CN(C)C(=O)N[C@H](C(=O)N[C@@H](Cc2ccccc2)C[C@H](O)[C@H](Cc2ccccc2)NC(=O)OCc2cncs2)C(C)C)cs1` [ritonavir free base, (2S,3S,5S)-5-(N-(N-((N-methyl-N-((2-isopropyl-4-thiazolyl)-methyl)amino)carbonyl)-L-valinyl)amino)-2-(N-((5-thiazolyl)-methoxy-carbonyl)-amino)-1,6-diphenyl-3-hydroxyhexane, reference compound], in the data set “in vivo” (po, 100 mg, range), the AUC was less than 22 ng·h/mL.
